Experiments:
[1] = cited from earlier work
[2] = Relaxation dynamics of hyperpolarized [1-13C]pyruvate (build-up time Tb and T1)
[3] = as above; remark: listed apart in the source
Description: In addition, the relaxation dynamics of the [1-^13C]pyruvate were also studied.
In addition, relaxation dynamics at earth field and 1.8 T are about the same as a non-fluorinated SABRE catalyst T1=28.9±1.6 s and 66.5±7 s, respectively.

[4] = Example 7: Example 4 catalyst, DMSO, methanol
[5] = Example 25: Example 4 catalyst, DMSO, NFBME/MeOD fluorous mixture
[6] = Example 31: Example 4 catalyst, DMSO, CD3OD/Novec 7100
[7] = Example 32: Example 4 catalyst, PTMSO, CD3OD/Novec 7100

Row | SMILES | H2 solubility in water [1] | T1 (relaxation at 0.4 μT) [2, 4] | T1 (relaxation at 0.4 μT) [2, 5] | T1 (relaxation at 0.4 μT) [2, 6] | T1 (relaxation at 0.4 μT) [2, 7] | T1 at 1.8T [3, 4] | T1 at earth field [3, 4] | T1 at 1.8T [3, 5] | T1 at earth field [3, 5] | T1 at 1.8T [3, 6] | T1 at earth field [3, 6] | T1 at 1.8T [3, 7] | T1 at earth field [3, 7]
1 | [HH] [Example H2] | about 1.6 mg/L | – | – | – | – | – | – | – | – | – | – | – | –
2 | CC(=O)C(=O)O [[1-^13C]pyruvate, sodium [1-^13C]pyruvate] | – | 16.1 ± 0.9 s | 11.3 ± 1.3 s | 12.6 ± 1.1 s | 18.0 ± 0.8 s | 66.5 ± 7 s | 28.9 ± 1.6 s | 16.0 ± 1.4 s | 9.0 ± 1.9 s | 66.5 ± 3.6 s | 9.3 ± 0.8 s | 59.0 ± 8.1 s | 14.9 ± 1.0 s
